In patent US20210161807A1, “IMPLANTABLE DEVICE FOR LOCALIZED DRUG DELIVERY, USES AND MANUFACTURING METHOD THEREOF” (FONDAZIONE ISTITUTO ITALIANO DI TECNOLOGIA, priority 2018, published 2021):

Experiment: Release of docetaxel from the polymer matrix of the device
Type: physicochemical
Details: Docetaxel incorporated in the polymer matrix in the form of powder
Text: The selected active ingredient may be appropriately incorporated into the polymer matrix in a form suitable for obtaining a prolonged release of the main active ingredient itself, without affecting the pharmacological activity thereof. For example, the Docetaxel incorporated in the polymer matrix in the form of powder is released up to 60 days after implantation. Longer release times may be easily achieved by incorporating the active ingredient, instead of in the form of powder, in its co-crystalline form. This solid form reduces the rate of dissolution, which is a necessary prerequisite for subsequent diffusion into the space surrounding the implanted device, […].
To study the release profile, the μMESH device and the FLAT counterpart thereof were incubated in 1 ml of phosphate buffered saline (PBS), to mimic and maximize the volume of liquid to which the devices may be exposed in a local application. At different times, the solution was centrifuged at 5000 rpm for 10 min and the supernatant was analyzed using the protocol described above. The results are expressed as a percentage of the cumulative release over time of three samples for each type of device.

CC(=O)O[C@@]12CO[C@@H]1C[C@H](O)[C@@]1(C)C(=O)[C@H](O)C3=C(C)[C@@H](OC(=O)[C@H](O)[C@@H](NC(=O)OC(C)(C)C)c4ccccc4)C[C@@](O)([C@@H](OC(=O)c4ccccc4)[C@H]21)C3(C)C [Docetaxel]
release time of active ingredient after implantation: up to 60 days
